# In patent EP1604983A1, “RECEPTOR ANTAGONIST” (Takeda Pharmaceutical Company Limited, priority 2003, dated 2004):
# pIC50: −log10 of the molar value. No end group written: not given here.
# Legend:
# [1] = Blood glucose concentration after intravenous administration of RFRP-1 to rat under no anesthesia; type: in vivo, Wistar male rat; settings: 10 nmol/kg, 5 minutes and 15 minutes after administration, compared with physiological saline group (Fig. 1)
# Procedure: (§1) A value indicates mean ± […] (mean ± SE) (n = 4). • Fig. 4 indicates a ratio of freezing in cued fear conditioning when RFRP-1 (-◆-) and a physiological saline (-○-) are administered in a ventricle. An ordinate axis indicates freezing (%) of one day and two day after administration, respectively, expressed by mean ± standard error.
# Blood glucose concentration increasing activity of RFRP
# As RFRP, human RFRP-1 (37 amino acids) consisting of an amino acid sequence of 56th (Ser) to 92nd (Phe) of an amino acid sequence represented by SEQ ID No.: 3. Hereinafter, this peptide is abbreviated as RFRP-1.
# In order to study influence of peripheral administration of RFRP-1 on a blood glucose concentration, operation for collecting blood under free moving was performed. A mature Wistar male rat (weight 310 to 350 g at operation) was anesthetized with 50 mg/kg of pentobarbital by intraperitoneal administration. The rat was fixed on an anatomic pad in a supine position, and a left jugular vein was exposed. […]
# Overnight after operation, 300 µl of blood was collected using a tuberculin injection syringe having a dose of 1 ml and a 25 gauge injection needle (both Telmo) before administration of RFRP-1. […] A blood glucose concentration was measured using Fuji Drichem 3500 (FUJIFILM).
# [2] = Blood glucagon and insulin concentration after intravenous administration of RFRP-1 to rat; type: in vivo, Wistar male rat; settings: for blood glucagon concentration: intravenous, compared with physiological saline group (Fig. 2)
# Procedure: as §1
# Pancreatic glucagon secretion promoting activity of RFRP
# In order to study mechanism of blood glucose concentration increasing activity of RFRP-1, influence of RFRP-1 on a blood concentration of glucagon and insulin which are known as a hormone imparting a variation to a blood glucose concentration was studied. A mature Wistar male rat (weight 310 to 350 g at operation) was operated for collecting blood under free moving. Overnight after operation, 300 µl of a blood was collected using a tuberculin injection syringe having a dose of 1 ml and a 25 gauge injection needle (both Telmo) before administration of RFRP-1. In order to prevent blood coagulation, 3 µl of a 300 KIU/ml aprotinin solution containing 3 mg/ml EDTA had been placed into an injection syringe in advance. An Otsuka physiological saline or RFRP-1 dissolved in a physiological saline (80 nmol/mL) was intravenously administered through a tube at 1 mL/Kg. After 1, 3, 5 and 15 minutes from initiation of intravenous administration, each 300 µL of blood was collected from a jugular vein. The collected blood was centrifuged (13,000 rpm, 5 minutes) using a minor amount high speed cooling centrifuge (MR-150, Tommy Seiko), and the supernatant (plasma) was recovered.
# [3] = Cued fear conditioning (freezing) after ventricle administration of RFRP-1; type: in vivo, Wistar male rat; settings: rat, 3 nmol into a ventricle, on 2 day (48 hours after training); saline group 46.5% (Fig. 4)
# Procedure: as §1
# Amnesia promoting activity of RFRP
# Since an RFRP nerve is projected on amygdaloid complex, in order to study involvement of RFRP in amygdaloid complex-dependent memory•learning ability, influence under cued fear conditioning due to ventricle administration of RFRP-1 was studied. A mature Wistar male rat (weight 280 to 320 g at operation) was anesthetized with 50 mg/kg of pentobarbital by intraperitoneal administration, and a rat was fixed in a brain localization apparatus. A tooth cutting bar was set lower by 3.3 mm from an interoralline. A cranial bone was exposed, and a hole was opened in a bone using a dental drill in order to embed a guide cannulae AG-12 (internal diameter 0.4 mm, external diameter 0.5 mm, Eicom) in a ventricle. In addition, an anchor screw was embedded in four places at a periphery thereof. A stainless guide cannulae AG-12 was inserted so that its tip was positioned at an upper part of a side ventricle. […]
# [4] = tested on: human-type OT7T022; experiment: Binding inhibiting activity using human-type OT7T022-expressing CHO cell membrane fraction and 125I-labeled Y-RFRP-3; settings: human-type OT7T022-expressing CHO cell membrane fraction 1 µg; 125I-labeled Y-RFRP-3 100 pM; room temperature 1.5 hours; read-out: IC50 value (binding inhibiting rate)
# Procedure: Assessment of binding inhibiting activity of test compound using human-type OT7T022-expressing CHO cell
# (1) Preparation of iodine-labeled entity of human-type RFRP-3 (Y-RFRP-3)
# A part thereof was 1/100 diluted, radioactivity was measured with a γ-counter, and the remaining authentic product was distributed, which was stored at -30°C.
# (2) Assessment of binding inhibiting activity
# To a 96-well microplate were added 1 µg of a membrane fraction, a compound and Y-RFRP-3 labeled with ^125I, which had been diluted with a reaction buffer (50 mM Tris-HCl, 5 mM EDTA, 0.1% BSA, 0.5 mM PMSF, 20 µg/ml leupeptin, 0.1 µg/ml pepstatin A, 4 µg/ml E-64, 10 mM MgCl2, pH 7.5), to 100pM to react them at room temperature for 1.5 hours. For measuring non-specific binding, non-labeled Y-RFRP-3 was further added to […]. Then, a membrane fraction was transferred to a unifilter GF/C (Perkin Elmer) by filtering the reaction solution using a cell harvester (Perkin Elmer), and this was washed with a cooled 50 mM Tris buffer (pH 7.5) five times. The filter was dried, Microsinti (Packard) was added to the filter, and radioactivity was measured with Topcount (Packard).
# A binding inhibiting rate (IC50 value) of a test compound is shown in [Table 1].
Substance,blood glucose concentration [1],blood insulin concentration ([2]; intravenous (Fig. 3)),blood glucagon concentration ([2]; 5 minutes after administration),blood glucagon concentration ([2]; two minutes after administration),rate of freezing [3],pIC50 [4]
"RFRP-1 (MPHSFANLPLRF; not fully specified; ends and bridges not checked; UniProt Q9HCQ7 81-92, looked up)","significant (p<0.05, n = 4) activity of increasing a blood glucose concentration",a variation due to administration of RFRP-1 was not recognized,significant (p<0.01) increase was continued,significant (p<0.01) increase in a blood glucagon concentration,35.5%,–
"tert-Butyl 7-bromo-4-hydroxy-2-neopentyl-1-oxo-1,2-dihydroisoquinoline-3-carboxylate [Example 10]",–,–,–,–,–,> 6.00
